Measurements reported in ChEMBL document CHEMBL3407448 (J Med Chem, 2015).

Experiments:
[1] = (§1) Volume of distribution at steady state in male Wistar rat at 1 mg/kg, iv; assay type: ADME, organism-based; design: dose 1 mg/kg, route intravenous; settings: male, Wistar, in vivo, read-out: Vdss
[2] = Ratio of drug level in CSF to plasma in male Wistar rat; assay type: ADME
[3] = AUC (infinity) in fed cynomolgus monkey at 0.3 mg/kg, po; assay type: ADME, organism-based, Macaca fascicularis; design: time infinity, dose 0.3 mg/kg, route oral; settings: plasma
[4] = Oral bioavailability in fasted cynomolgus monkey at 0.3 mg/kg; assay type: ADME, organism-based, Macaca fascicularis; settings: in vivo
[5] = AUC (infinity) in fasted cynomolgus monkey at 0.3 mg/kg, po; assay type: ADME, organism-based, Macaca fascicularis; design: time infinity, dose 0.3 mg/kg, route oral; settings: plasma
[6] = Cmax in male Wistar rat at 10 mg/kg, po; assay type: ADME, organism-based; design: dose 10 mg/kg, route oral; settings: in vivo
[7] = Tmax in fasted cynomolgus monkey at 03 mg/kg, po; assay type: ADME, organism-based, Macaca fascicularis; design: dose 3 mg/kg, route oral; settings: in vivo, 3 mg/kg
Plasma [8] = experiment: Plasma concentration in male Sprague-Dawley rat at 0.03 mg/ml, po; assay type: ADME
[9] = Cmax in fed cynomolgus monkey at 0.3 mg/kg, po; assay type: ADME, organism-based, Macaca fascicularis; design: dose 0.3 mg/kg, route oral; settings: in vivo
[10] = Ratio of drug level in brain to plasma in male Wistar rat; assay type: ADME; settings: read-out: BPR
[11] = Volume of distribution at steady state cynomolgus monkey at 1 mg/kg, iv; assay type: ADME, organism-based, Macaca fascicularis; design: dose 1 mg/kg, route intravenous; settings: in vivo, read-out: Vdss
[12] = Tmax in male Wistar rat at 10 mg/kg, po; assay type: ADME, organism-based; design: dose 10 mg/kg, route oral; settings: in vivo
[13] = Oral bioavailability in fed cynomolgus monkey at 0.3 mg/kg; assay type: ADME, organism-based, Macaca fascicularis; settings: in vivo
Plasma [14] = experiment: Plasma concentration in male Sprague-Dawley rat at 0.3 mg/ml, po; assay type: ADME
[15] = AUC (infinity) in male Wistar rat at 10 mg/kg, po; assay type: ADME, organism-based; design: time infinity, dose 10 mg/kg, route oral; settings: plasma
[16] = Oral bioavailability in male Wistar rat at 10 mg/kg; assay type: ADME, organism-based; settings: in vivo
[17] = Cmax in fasted cynomolgus monkey at 0.3 mg/kg, po; assay type: ADME, organism-based, Macaca fascicularis; design: dose 0.3 mg/kg, route oral; settings: in vivo
[18] = Tmax in fed cynomolgus monkey at 03 mg/kg, po; assay type: ADME, organism-based, Macaca fascicularis; design: dose 3 mg/kg, route oral; settings: in vivo, 3 mg/kg
[19] = Volume of distribution at steady state in male Wistar rat at 2 mg/kg, iv; assay type: ADME, organism-based; design: dose 2 mg/kg, route intravenous; settings: in vivo, read-out: Vdss
[20] = Oral bioavailability in male Wistar rat at 7 mg/kg; assay type: ADME, organism-based; settings: in vivo
[21] = AUC (infinity) in male Wistar rat at 7 mg/kg, po; assay type: ADME, organism-based; design: time infinity, dose 7 mg/kg, route oral; settings: plasma
[22] = Cmax in male Wistar rat at 7 mg/kg, po; assay type: ADME, organism-based; design: dose 7 mg/kg, route oral; settings: in vivo
[23] = Tmax in male Wistar rat at 7 mg/kg, po; assay type: ADME, organism-based; design: dose 7 mg/kg, route oral; settings: in vivo
Rattus norvegicus = experiment: as §1; assay type: ADME, organism-based; design: dose 1 mg/kg, route intravenous; settings: in vivo

Row | SMILES | Kp [2] | Cmax [6] | Kp [10] | Tmax [12] | AUC(0-inf) [15] | bioavailability [16] | Vd [19] | bioavailability [20] | AUC(0-inf) [21] | Cmax [22] | Tmax [23] | also measured
1 | Cc1nc(C#Cc2ccnc(Cl)c2)c(C)n1-c1ccc(F)cc1 [BASIMGLURANT] | 0.06 | 1580 ng/mL | 2.9 | 6.2 h | 25600 ng·h/mL | 91% |  |  |  |  |  | Vd [1]: 4 L/kg; AUC(0-inf) [3]: 298 ng·h/mL; bioavailability [4]: 100%; AUC(0-inf) [5]: 852 ng·h/mL; Tmax [7]: 1 h; Cp (Plasma [8]): 5 ng/mL; Cmax [9]: 36.1 ng/mL; Vd [11]: 5.1 L/kg; bioavailability [13]: 54%; Cp (Plasma [14]): 37 ng/mL; Cmax [17]: 76.5 ng/mL; Tmax [18]: 2 h
2 | Cc1cc(C#Cc2cn(-c3ccc(F)cc3)c(C)n2)ccn1 | 0.02 |  | 0.4 |  |  |  | 0.8 L/kg | 84% | 10500 ng·h/mL | 1660 ng/mL | 1.1 h | 
3 | C(#Cc1ncn2c1COc1ccccc1-2)c1ccccc1 |  |  |  |  |  |  |  | 18% | 661 ng·h/mL | 158 ng/mL | 2.3 h | Vdss (Rattus norvegicus): 2.9 L/kg
4 | Cc1nc(C#Cc2ccnc(Cl)c2)c(C)n1-c1ccc(OC(F)(F)F)cc1 |  | 619 ng/mL | 2.6 | 5.5 h | 78900 ng·h/mL | 98% | 11 L/kg |  |  |  |  | 
